Source: patent US6808904B2, “Herbicide-tolerant protox genes produced by DNA shuffling” (priority 1994, dated 2004)

Key:
[1] = target: T1, plant protox mutants (MzC-1Val, maize protox-1) in SASX38 (Arabidopsis thaliana, UniProt P55826, A220V/A252T/A259N/A262P/A292S/A82G/A83V/D204A/D323E/D487E/D93A/DEL80-81/E103P/E263P/E288N/E311D/E351S/E499D/F107Y/F178L/F250I/F483L/G171P/G277A/G306S/G313K/G344N/G441S/H340Y/I100T/I174L/I370V/I421V/I485L/I71T/I87L/INS101VE/K237R/K257S/K359R/K388Q/K457N/K465V/K78R/K92R/L137F/L159P/L310S/L325V/L345I/L360F/L436V/L86V/M122V/N105E/N149E/N241T/N258K/N316V/N355D/N459T/N85D/P266A/P418D/P458S/P84G/Q240E/Q272K/R284A/R293S/S186P/S291T/S305T/S312D/S330A/S352D/S369T/S430A/S439T/S460A/S491A/S492A/S495R/S496G/T141N/T160A/T318E/T379K/T397S/T461V/T488A/T494D/T56K/V126A/V334I/V337I/V95P); experiment: Bacterial cross-tolerance testing of resistant mutant plasmids in SASX38, maize protox-1 mutant; type: cell-based; parameters: key: + = 10× or more tolerant than WT; ++ = 100× or more tolerant than WT; − = no cross tolerance; conditions: mutant MzC-1Val vs WT plasmid in SASX38
T1 construct: expressed in transfected cells; host or cells: E. coli SASX38 (hemG mutant)
T1 sequence (P55826 other isoform, or with tags, fused parts or gaps with the stated changes): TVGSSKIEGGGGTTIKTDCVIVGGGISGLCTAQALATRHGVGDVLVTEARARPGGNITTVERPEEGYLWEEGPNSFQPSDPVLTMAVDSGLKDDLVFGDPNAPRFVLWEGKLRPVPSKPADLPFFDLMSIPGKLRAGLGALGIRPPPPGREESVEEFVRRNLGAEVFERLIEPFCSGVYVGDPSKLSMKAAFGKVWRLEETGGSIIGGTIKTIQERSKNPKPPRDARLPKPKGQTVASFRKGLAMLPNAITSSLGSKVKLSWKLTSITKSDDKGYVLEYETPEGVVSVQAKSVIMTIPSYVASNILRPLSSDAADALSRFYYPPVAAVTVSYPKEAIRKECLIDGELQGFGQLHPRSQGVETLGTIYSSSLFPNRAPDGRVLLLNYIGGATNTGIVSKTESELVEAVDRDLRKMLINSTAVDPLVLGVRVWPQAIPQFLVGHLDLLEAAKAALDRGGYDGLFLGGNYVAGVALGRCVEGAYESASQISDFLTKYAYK
Experimental: (§1) Resistant mutant plasmids, originally identified based on resistance against a single protox inhibitory herbicide, were tested against a spectrum of other protox inhibiting compounds. For this test, the SASX38 strain containing the wild-type plasmid is plated on a range of concentrations of each compound to determine the lethal concentration for each one. Resistant mutant plasmids in SASX38 are plated and scored for the ability to survive on a concentration of each compound at least 10 fold higher than the concentration that is lethal to the SASX38 strain containing the wild-type plasmid.

[2] = target: T2, plant protox mutants (Arabidopsis protox-1) in SASX38 (Arabidopsis thaliana, UniProt P55826, T56K/Y426I); experiment: Bacterial cross-tolerance testing of resistant mutant plasmids in SASX38, Arabidopsis protox-1 mutants; type: cell-based; parameters: key to Cross tolerance, AraC-1Val / Cross tolerance, AraC-2Cys / Cross tolerance, AraC-1Thr / Cross tolerance, AraC-3Thr / Cross tolerance, AraC-2Ile / Cross tolerance, AraC-2Cys + AraC425Ser: + = 10× or more tolerant than WT; ++ = 100× or more tolerant than WT; − = no cross tolerance; conditions: mutant AraC-2Ile
T2 construct: contains only 17 amino acids of the putative chloroplast transit peptide; expressed in transfected cells; host or cells: E. coli SASX38 (hemG mutant)
T2 sequence (P55826 41-537 T56K/Y426I): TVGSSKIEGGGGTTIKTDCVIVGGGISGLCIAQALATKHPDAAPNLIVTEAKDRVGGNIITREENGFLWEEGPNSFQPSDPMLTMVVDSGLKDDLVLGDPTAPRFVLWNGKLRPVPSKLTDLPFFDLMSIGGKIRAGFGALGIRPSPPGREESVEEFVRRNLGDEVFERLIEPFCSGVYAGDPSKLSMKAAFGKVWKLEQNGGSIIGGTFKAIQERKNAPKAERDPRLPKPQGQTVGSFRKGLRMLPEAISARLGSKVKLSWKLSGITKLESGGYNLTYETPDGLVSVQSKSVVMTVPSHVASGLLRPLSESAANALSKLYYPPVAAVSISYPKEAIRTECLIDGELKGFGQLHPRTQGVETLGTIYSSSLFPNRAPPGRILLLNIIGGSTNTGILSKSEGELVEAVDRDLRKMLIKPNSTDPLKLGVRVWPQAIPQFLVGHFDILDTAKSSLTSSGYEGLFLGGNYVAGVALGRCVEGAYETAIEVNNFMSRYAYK
Experimental: as §1

[3] = target: T3, plant protox mutants (Arabidopsis protox-1) in SASX38 (Arabidopsis thaliana, UniProt P55826, N425S/T56K/Y426M); experiment: as above; type: cell-based; parameters: key to Cross tolerance, AraC-1Val / Cross tolerance, AraC-2Cys / Cross tolerance, AraC-1Thr / Cross tolerance, AraC-3Thr / Cross tolerance, AraC-2Ile / Cross tolerance, AraC-2Cys + AraC425Ser: + = 10× or more tolerant than WT; ++ = 100× or more tolerant than WT; − = no cross tolerance; conditions: mutant AraC-2Met + AraC425Ser
T3 construct: contains only 17 amino acids of the putative chloroplast transit peptide; expressed in transfected cells; host or cells: E. coli SASX38 (hemG mutant)
T3 sequence (P55826 41-537 T56K/N425S/Y426M): as the sequence (P55826 41-537 T56K/Y426I) above, with N385S, I386M counted along it
Experimental: as §1

[4] = test system: Arabidopsis line expressing AraC-2Ile+AraC305Leu; experiment: Cross tolerance in a seed germination assay, homozygous Arabidopsis line with AraC-2Ile+AraC305Leu; type: in vivo, Arabidopsis thaliana; conditions: AraC-2Ile+AraC305Leu line vs wt
Experimental: Using the procedure described above, an Arabidopsis protox-1 cDNA containing a TAC to ATG (Tyrosine to Methionine) change at nucleotides 1306-1308 in the protox-1 sequence (SEQ ID NO:1) was fused to the native protox-1 promoter fragment and transformed into Arabidopsis thaliana. […] Seed from the vacuum infiltrated plants was collected and plated on a range (10.0 nM-1.0 uM) of a protox inhibitory aryluracil herbicide of formula XVII. Multiple experiments with wild type Arabidopsis have shown that a 10.0 nM concentration of this compound is sufficient to prevent normal seedling germination. Transgenic seeds expressing the AraC-2Met altered enzyme fused to the native protox-1 promoter produced normal Arabidopsis seedlings at herbicide concentrations up to 500 nM, indicating at least 50-fold higher herbicide tolerance when compared to wild-type Arabidopsis. This promoter/altered protox enzyme fusion therefore functions as an effective selectable marker for plant transformation. Several of the plants that germinated on 100.0 nM of protox-inhibiting herbicide were transplanted to soil, grown 2-3 weeks, and tested in a spray assay with various concentrations of the protox-inhibiting herbicide. When compared to empty vector control transformants, the AraPT1Pro/AraC-2Met transgenics were >10-fold more tolerant to the herbicide spray.
Using the procedure described above, an Arabidopsis protox-1 cDNA containing both a TAC to ATC (tyrosine to isoleucine) change at nucleotides 1306-1308 and a TCA to TTA (serine to leucine) change at nucleotides 945-947 in the protox-1 sequence (SEQ ID NO:1) was fused to the native protox-1 promoter fragment and transformed into Arabidopsis thaliana.

CCOC(=O)COC(=O)c1cc(Oc2ccc(C(F)(F)F)cc2Cl)ccc1[N+](=O)[O-] [IV]
Cross tolerance, MzC-1Val [1]: −
Cross tolerance, AraC-2Ile [2]: −
Cross tolerance, AraC-2Met + AraC425Ser [3]: + (+ = 10× or more tolerant than WT)
Tolerance [4]: ± (± ≦ 10× more tolerant than wt)

COC(=O)CSc1cc(N=c2sc(=O)n3n2CCCC3)c(F)cc1Cl [VIIa]
Cross tolerance, MzC-1Val [1]: + (+ = 10× or more tolerant than WT)
Cross tolerance, AraC-2Ile [2]: ++ (++ = 100× or more tolerant than WT)
Cross tolerance, AraC-2Met + AraC425Ser [3]: ++ (++ = 100× or more tolerant than WT)
Tolerance [4]: ++ (++ ≧ 100× more tolerant than wt)

CC(C)OC(=O)c1cc(-n2c(=O)cc(C(F)(F)F)n(C)c2=O)ccc1Cl [XI]
Cross tolerance, MzC-1Val [1]: + (+ = 10× or more tolerant than WT)
Cross tolerance, AraC-2Ile [2]: ++ (++ = 100× or more tolerant than WT)
Cross tolerance, AraC-2Met + AraC425Ser [3]: ++ (++ = 100× or more tolerant than WT)
Tolerance [4]: ++ (++ ≧ 100× more tolerant than wt)

CCCCCOC(=O)COc1cc(N2C(=O)C3=C(CCCC3)C2=O)c(F)cc1Cl [XIV]
Cross tolerance, MzC-1Val [1]: + (+ = 10× or more tolerant than WT)
Cross tolerance, AraC-2Ile [2]: ++ (++ = 100× or more tolerant than WT)
Cross tolerance, AraC-2Met + AraC425Ser [3]: ++ (++ = 100× or more tolerant than WT)
Tolerance [4]: + (+ ≧ 10× more tolerant than wt)
